The record followed here is patent US20110245496A1, “Quinazoline Salt Compounds” (priority 2007, published 2011).

Where “and” joins values, the source holds several entries; their conditions need not be identical. Equal entries are not always repeated. Where only a bound is given, the exact number is not on record here.

The nature of series [1]: Salt solubility measurement in water. As to conditions: for Solubility as free base / Solubility as salt / solubility: water, stirred at ambient temperature 18-20 hours, filtered, hplc assay; for solubility: thermodynamic from solid; for pH of the remaining solution: remaining solution after solubility measurement in water.
For a further series, the system named is breast (BT474) cell line. Briefly: Methylene blue growth inhibition assay, BT474. It is filed as cell-based. Particulars: Homo sapiens, BT-474, 72 h, BT474 cells, 3 days. How it is done: (§1) Human breast (BT474), head and neck (HN5) and gastric tumor (N87) cell lines and human foreskin Fibroblasts (HFF) were cultured in low glucose DMEM (Life Technologies 12320-032) containing 10% fetal bovine serum (FBS) at 37° C. in a humidified 10% CO2, 90% air incubator. The SV40 transformed human mammary epithelial cell line HB4a was transfected with either human H-ras cDNA (HB4a r4.2) or the human c-erbB2 cDNA (HB4a c5.2). The HB4a clones were cultured in RPMI containing 10% FBS, insulin ([…]), hydrocortisone ([…]), supplemented with the selection agent hygromycin B (50 μg/ml). Cells were harvested using trypsin/EDTA, counted using a haemocytometer, and plated in […] of the appropriate media, at the following densities, in a 96-well tissue culture plate (Falcon 3075): BT474 10,000 cells/well, HN5 3,000 cells/well, N87 10,000 cells/well, HB4a c5.2 3,000 cells/well, HB4a r4.2 3,000 cells/well, HFF 2500 cells/well. The next day, compounds were diluted in DMEM containing […] gentamicin, at twice the final required concentration, from 10 mM stock solutions in DMSO. […] of these dilutions were added to the […] of media currently on the cell plates. Medium containing 0.6% DMSO was added to control wells. […] Optical density at 620 nm was measured on a microplate reader. Percent inhibition of cell growth was calculated relative to vehicle treated control wells. […]

In series [2] the test system is head and neck (HN5) cell line. Briefly: Methylene blue growth inhibition assay, HN5. Particulars: Homo sapiens, 72 h, HN5 cells, 3 days. The class given is cell-based. Here is the method: as §1
Series [3] deals with gastric tumor (N87) cell line. Briefly: Methylene blue growth inhibition assay, N87. The class given is cell-based. As to conditions: Homo sapiens, 72 h, N87 cells, 3 days. Here is the method:
as §1

On to `CS(=O)(=O)CCNCc1ccc(-c2ccc3ncnc(Nc4ccc(OCc5cccc(F)c5)c(Cl)c4)c3c2)o1.CS(=O)(=O)O.CS(=O)(=O)O.O` [Dimesylate monohydrate, N-{3-Chloro-4-[(3-fluorobenzyl)oxy]phenyl}-6-[5-({[2-(methanesulphonyl)ethyl]amino}methyl)-2-furyl]-4-quinazolinamine dimesylate monohydrate], for which the “Solubility as free base” value in series [1] (dimesylate monohydrate) is given as 1) ~4.70 mg/ml. In addition, the Solubility as salt in series [1] (dimesylate monohydrate) is listed as 1) 6.25 mg/ml. The solubility – broadly, how much of the substance goes into solution per volume – in series [1] (Solubility as free base) is around 4360 µg/mL; in series [1] (Solubility as salt), 5800 µg/mL.

In the case of Lapatinib Difumarate, in series [1], the “pH of the remaining solution” value is 3.0 and the “Solubility as free base” value is given as “<LoD”.

For the compound `CS(=O)(=O)CCNCc1ccc(-c2ccc3ncnc(Nc4ccc(OCc5cccc(F)c5)c(Cl)c4)c3c2)o1.CS(=O)(=O)O` [Monomesylate, N-{3-Chloro-4-[(3-fluorobenzyl)oxy]phenyl}-6-[5-({[2-(methanesulphonyl)ethyl]amino}methyl)-2-furyl]-4-quinazolinamine monomesylate], the solubility is 330 µg/mL in series [1] (Solubility as free base) and 390 µg/mL in series [1] (Solubility as salt).

On to `CS(=O)(=O)CCNCc1ccc(-c2ccc3ncnc(Nc4ccc(OCc5cccc(F)c5)c(Cl)c4)c3c2)o1.O=C(O)C[C@H](O)C(=O)O` [Mono L-malate, N-{3-Chloro-4-[(3-fluorobenzyl)oxy]phenyl}-6-[5-({[2-(methanesulphonyl)ethyl]amino}methyl)-2-furyl]-4-quinazolinamine mono-L-malate], for which the Solubility as salt in series [1] (mono-L-malate) was 0.07 mg/mL. In addition, the solubility in series [1] (Solubility as free base) was 50 µg/mL; in series [1] (Solubility as salt), 60 µg/mL.

For the compound `CCS(=O)(=O)O.CCS(=O)(=O)O.CS(=O)(=O)CCNCc1ccc(-c2ccc3ncnc(Nc4ccc(OCc5cccc(F)c5)c(Cl)c4)c3c2)o1` [Diesylate, N-{3-Chloro-4-[(3-fluorobenzyl)oxy]phenyl}-6-[5-({[2-(methanesulphonyl)ethyl]amino}methyl)-2-furyl]-4-quinazolinamine diesylate], the solubility in series [1] (Solubility as free base) was around 19700 µg/mL; in series [1] (Solubility as salt) it was around 27200 µg/mL.

Take `CS(=O)(=O)CCNCc1ccc(-c2ccc3ncnc(Nc4ccc(OCc5cccc(F)c5)c(Cl)c4)c3c2)o1.C[C@H](O)C(=O)O` [Mono-L-lactate, N-{3-Chloro-4-[(3-fluorobenzyl)oxy]phenyl}-6-[5-({[2-(methanesulphonyl)ethyl]amino}methyl)-2-furyl]-4-quinazolinamine mono-L-lactate]: the Solubility as salt in series [1] is reported as 2) 7.9 mg/ml. For the same compound, the solubility is around 7300 µg/mL in series [1] (Solubility as free base) and 8500 µg/mL in series [1] (Solubility as salt).

As to `CS(=O)(=O)CCNCc1ccc(-c2ccc3ncnc(Nc4ccc(OCc5cccc(F)c5)c(Cl)c4)c3c2)o1.O=C(O)CC(O)(CC(=O)O)C(=O)O` [Monocitrate, N-{3-Chloro-4-[(3-fluorobenzyl)oxy]phenyl}-6-[5-({[2-(methanesulphonyl)ethyl]amino}methyl)-2-furyl]-4-quinazolinamine monocitrate], the solubility in series [1] (Solubility as free base) and in series [1] (Solubility as salt) was 10 µg/mL each time.

On to `CS(=O)(=O)CCNCc1ccc(-c2ccc3ncnc(Nc4ccc(OCc5cccc(F)c5)c(Cl)c4)c3c2)o1.O=C(O)CCC(=O)O` [Succinate, N-{3-Chloro-4-[(3-fluorobenzyl)oxy]phenyl}-6-[5-({[2-(methanesulphonyl)ethyl]amino}methyl)-2-furyl]-4-quinazolinamine monosuccinate], for which, in series [1], the “Solubility as free base” value is given as “<LoD” and the Solubility as salt result is on record as “<LoD”.

For the compound `CS(=O)(=O)CCNCc1ccc(-c2ccc3ncnc(Nc4ccc(OCc5cccc(F)c5)c(Cl)c4)c3c2)o1.O=C(O)c1ccccc1.O=C(O)c1ccccc1` [Dibenzoate, N-{3-Chloro-4-[(3-fluorobenzyl)oxy]phenyl}-6-[5-({[2-(methanesulphonyl)ethyl]amino}methyl)-2-furyl]-4-quinazolinamine dibenzoate], the solubility came to 40 µg/mL in series [1] (Solubility as free base) and 60 µg/mL in series [1] (Solubility as salt).

Turning to `CS(=O)(=O)CCNCc1ccc(-c2ccc3ncnc(Nc4ccc(OCc5cccc(F)c5)c(Cl)c4)c3c2)o1.CS(=O)(=O)O.CS(=O)(=O)O.O.O` [Dimesylate dehydrate, N-{3-Chloro-4-[(3-fluorobenzyl)oxy]phenyl}-6-[5-({[2-(methanesulphonyl)ethyl]amino}methyl)-2-furyl]-4-quinazolinamine dimesylate dihydrate], the values for the solubility in series [1] (Solubility as free base) and in series [1] (Solubility as salt) were around 15300 µg/mL and around 21300 µg/mL, respectively.

`CCS(=O)(=O)O.CS(=O)(=O)CCNCc1ccc(-c2ccc3ncnc(Nc4ccc(OCc5cccc(F)c5)c(Cl)c4)c3c2)o1` [Monoesylate, N-{3-Chloro-4-[(3-fluorobenzyl)oxy]phenyl}-6-[5-({[2-(methanesulphonyl)ethyl]amino}methyl)-2-furyl]-4-quinazolinamine monoesylate]: in series [1], the “Solubility as free base” value turned out to be 0.53 mg/mL and the Solubility as salt is 0.63 mg/mL. Moreover, in series [1] (Solubility as free base), the solubility was 520 µg/mL. In addition, in series [1] (Solubility as salt), the solubility was 620 µg/mL.

As to `CS(=O)(=O)CCNCc1ccc(-c2ccc3ncnc(Nc4ccc(OCc5cccc(F)c5)c(Cl)c4)c3c2)o1.O=C(O)/C=C\C(=O)O.O=C(O)/C=C\C(=O)O` [Dimaleate, N-{3-Chloro-4-[(3-fluorobenzyl)oxy]phenyl}-6-[5-({[2-(methanesulphonyl)ethyl]amino}methyl)-2-furyl]-4-quinazolinamine dimaleate], in series [1] (dimaleate), the “Solubility as free base” value was 0.15 mg/mL and 0.14 mg/mL. Moreover, the Solubility as salt in series [1] (dimaleate) is 0.20 mg/mL and 0.19 mg/mL. The solubility in series [1] (Solubility as free base) amounted to 130 µg/mL; in series [1] (Solubility as salt), 180 µg/mL.

Consider `CS(=O)(=O)CCNCc1ccc(-c2ccc3ncnc(Nc4ccc(OCc5cccc(F)c5)c(Cl)c4)c3c2)o1.O.O=C(O)/C=C\C(=O)O.O=C(O)/C=C\C(=O)O` [Dimaleate monohydrate, N-{3-Chloro-4-[(3-fluorobenzyl)oxy]phenyl}-6-[5-({[2-(methanesulphonyl)ethyl]amino}methyl)-2-furyl]-4-quinazolinamine dimaleate monohydrate], for which the solubility was 40 µg/mL in series [1] (Solubility as free base) and 60 µg/mL in series [1] (Solubility as salt).

Turning to `CS(=O)(=O)CCNCc1ccc(-c2ccc3ncnc(Nc4ccc(OCc5cccc(F)c5)c(Cl)c4)c3c2)o1` [GW572016X, N-{3-Chloro-4-[(3-fluorobenzyl)oxy]phenyl}-6-[5-({[2-(methanesulphonyl)ethyl]amino}methyl)-2-furyl]-4-quinazolinamine], the IC50 (with breast (BT474) cell line; in series [2]; in series [3]) was below 5 µM each time.

For Lapatinib Di-L-Malate, in series [1], the “pH of the remaining solution” value was 3.2, the “Solubility as free base” value was 0.91 mg/mL and the Solubility as salt came to 1.33 mg/mL.

For `CS(=O)(=O)CCNCc1ccc(-c2ccc3ncnc(Nc4ccc(OCc5cccc(F)c5)c(Cl)c4)c3c2)o1.C[C@H](O)C(=O)O.C[C@H](O)C(=O)O` [Di-L-lactate, N-{3-Chloro-4-[(3-fluorobenzyl)oxy]phenyl}-6-[5-({[2-(methanesulphonyl)ethyl]amino}methyl)-2-furyl]-4-quinazolinamine di-L-lactate], the solubility in series [1] (Solubility as free base) was above 10300 µg/mL; in series [1] (Solubility as salt), above 13500 µg/mL.

In the case of `CS(=O)(=O)CCNCc1ccc(-c2ccc3ncnc(Nc4ccc(OCc5cccc(F)c5)c(Cl)c4)c3c2)o1.O=S(=O)(O)c1ccccc1.O=S(=O)(O)c1ccccc1` [Dibesylate, N-{3-Chloro-4-[(3-fluorobenzyl)oxy]phenyl}-6-[5-({[2-(methanesulphonyl)ethyl]amino}methyl)-2-furyl]-4-quinazolinamine dibesylate], the “Solubility as free base” value in series [1] is reported as “<LoD”.

With Lapatinib Monofumarate, in series [1], the “pH of the remaining solution” value was determined as 4.0 and the “Solubility as free base” value is reported as “<LoD”.

For the compound `CS(=O)(=O)CCNCc1ccc(-c2ccc3ncnc(Nc4ccc(OCc5cccc(F)c5)c(Cl)c4)c3c2)o1.CS(=O)(=O)O.CS(=O)(=O)O` [Dimesylate, N-{3-Chloro-4-[(3-fluorobenzyl)oxy]phenyl}-6-[5-({[2-(methanesulphonyl)ethyl]amino}methyl)-2-furyl]-4-quinazolinamine dimesylate], the results for the solubility in series [1] (Solubility as free base) and in series [1] (Solubility as salt) were above 7350 µg/mL and above 10000 µg/mL, respectively.
